Reference: patent US20160243051A1, “MONO DISPERSE POLYMER NANOPARTICLES, FUNCTIONALIZED NANOPARTICLES AND CONTROLLED FORMATION METHOD” (THE CURATORS OF THE UNIVERSITY OF MISSOURI, priority 2013, published 2016)

Test: Near infrared whole body florescent imaging, IVIS in-vivo imaging system
Settings: nude mice, 100 μl injected once, 0.15 mg/ml ICG
Procedure: Near Infrared based florescent imaging was carried out in nude mice through IVIS in-vivo imaging system. Briefly, 100 μl of samples of free ICG solution (0.15 mg/ml), PMMA-COOH (0.15 mg/ml of ICG present in nanoparticles) and Pegylated nanoparticles containing ICG (0.15 mg/ml) were injected once and their florescence were recorded at various time points as shown in FIGS. 8A-8C. […] There are three possible reasons for florescence quenching; namely, (i) degradation of free ICG physiological conditions, or (ii) rapid clearance of free ICG from the body, or (iii) a combination of both processes.

time within which florescence diminished: ≤ 6 h
time within which florescence was completely reduced to almost zero: ≤ 24 h
SMILES: CC1(C)C(/C=C/C=C/C=C/C=C2\N(CCCCS(=O)(=O)O)c3ccc4ccccc4c3C2(C)C)=[N+](CCCCS(=O)(=O)[O-])c2ccc3ccccc3c21 [free ICG, indocyanine green]
